Results: ChEMBL document CHEMBL5149994, “Anticancer potential of indirubins in medicinal chemistry: Biological activity, structural modification, and structure-activity relationship” (Eur J Med Chem, 2021)
In brackets after ≈: the same amount, converted by molar mass.

Experiments:
A549 [1] = assay: Antiproliferative activity against human A549 cells assessed as cell growth inhibition measured after 24 hrs by MTT assay; assay type: functional, cell-based; conditions: A549, 24 h
SNU-638 = assay: Antiproliferative activity against human SNU-638 cells assessed as cell growth inhibition measured after 24 hrs by MTT assay; assay type: functional, cell-based; conditions: SNU-638, 24 h
HT-1080 = assay: Antiproliferative activity against human HT-1080 cells assessed as cell growth inhibition measured after 24 hrs by MTT assay; assay type: functional, cell-based; conditions: HT-1080, 24 h
[2] = Cytotoxicity against rat RK3E cells harboring RAS assessed as cell growth inhibition measured after 24 hrs by MTT assay; assay type: toxicity, cell-based
[3] = Inhibition of GST-tagged recombinant human CDK2/cyclin E expressed in Sf9 cells incubated for 10 mins in presence of [33P]-gamma ATP and ATP by scintillation counter method
MCF7 [4] = assay: Cytotoxicity against human MCF7 cells assessed as cell growth inhibition measured after 4 days by crystal violet staining based assay; assay type: functional; conditions: MCF7, 96 h
[5] = Kinetic solubility of compound in PBS at pH 7.4; assay type: physicochemical; conditions: read-out: Kinetic_solubility
CDK2/Cyclin A2 = CDK2/Cyclin A2 (Homo sapiens, UniProt P24941); assay: Inhibition of CDK2/cyclin A (unknown origin); assay type: protein-complex assay
HL-60 [6] = assay: Cytotoxicity against human HL-60 cells assessed as cell growth inhibition; assay type: functional, cell-based
MCF7 [7] = assay: Cytotoxicity against human MCF7 cells assessed as cell growth inhibition; assay type: functional, cell-based
SK-MEL19 = assay: Cytotoxicity against human SK-MEL19 cells assessed as cell growth inhibition measured after 24 hrs by WST-1 assay; assay type: functional, cell-based; conditions: SK-MEL19, 24 h
[8] = Cytotoxicity against human SK-MEL-29 cells assessed as cell growth inhibition measured after 24 hrs by WST-1 assay; assay type: functional, cell-based; conditions: SK-MEL-29, 24 h
SK-MEL-103 = assay: Cytotoxicity against human SK-MEL-103 cells assessed as cell growth inhibition measured after 24 hrs by WST-1 assay; assay type: functional, cell-based; conditions: SK-MEL-103, 24 h
NCI-H157 = assay: Cytotoxicity against human NCI-H157 cells assessed as cell growth inhibition at 100 uM by calcein-AM staining based flow cytometry analysis relative to control; assay type: functional; parameters: scale not given: the % may be the effect or the level left
DU-145 = assay: Antiproliferative activity against human DU-145 cells assessed as cell growth inhibition by MTT assay; assay type: functional, cell-based
A549 [9] = assay: Antiproliferative activity against human A549 cells assessed as cell growth inhibition measured after 96 hrs by MTT assay; assay type: functional, cell-based; conditions: A549, 96 h
CH1 = assay: Antiproliferative activity against human CH1 cells assessed as cell growth inhibition measured after 96 hrs by MTT assay; assay type: functional, cell-based; conditions: CH1, 96 h
SW480 [10] = assay: Antiproliferative activity against human SW480 cells assessed as cell growth inhibition measured after 96 hrs by MTT assay; assay type: functional, cell-based; conditions: SW480, 96 h
SW480 [11] = assay: Antiproliferative activity against human SW480 cells assessed as cell growth inhibition; assay type: functional, cell-based
[12] = Antiproliferative activity against human Lu1 cells assessed as cell growth inhibition; assay type: functional, cell-based
HepG2 [13] = assay: Antiproliferative activity against human HepG2 cells assessed as cell growth inhibition; assay type: functional, cell-based
HL-60 [14] = assay: Antiproliferative activity against human HL-60 cells assessed as cell growth inhibition; assay type: functional, cell-based
HepG2 [15] = assay: Antiproliferative activity against human HepG2 cells assessed as cell growth inhibition measured after 72 hrs by MTT assay; assay type: functional, cell-based; conditions: HepG2, 72 h
[16] = Antiproliferative activity against human Lu1 cells assessed as cell growth inhibition measured after 72 hrs by MTT assay; assay type: functional, cell-based; conditions: Lu1, 72 h
SW480 [17] = assay: Antiproliferative activity against human SW480 cells assessed as cell growth inhibition measured after 72 hrs by MTT assay; assay type: functional, cell-based; conditions: SW480, 72 h
HL-60 [18] = assay: Antiproliferative activity against human HL-60 cells assessed as cell growth inhibition measured after 72 hrs by MTT assay; assay type: functional, cell-based; conditions: HL-60, 72 h
MCF7 [19] = assay: Cytotoxicity against human MCF7 cells assessed as cell growth inhibition by MTT assay; assay type: functional, cell-based
LoVo = assay: Cytotoxicity against human LoVo cells assessed as cell growth inhibition by MTT assay; assay type: functional, cell-based
LNCaP = assay: Cytotoxicity against human LNCaP cells assessed as cell growth inhibition by MTT assay; assay type: functional, cell-based
SK-MEL-147 = assay: Cytotoxicity against human SK-MEL-147 cells assessed as cell growth inhibition measured after 24 hrs by WST-1 assay; assay type: functional, cell-based; conditions: SK-MEL-147, 24 h

Compound: O=C1Nc2ccc(F)cc2/C1=C1/Nc2ccccc2/C1=N\O
- IC50 (A549 [1]): 12.2 µM
- IC50 (SNU-638): 2.1 µM
- IC50 (HT-1080): 3.4 µM
- IC50 at 24 h [2]: 5.1 µM

Compound: CN(C)S(=O)(=O)c1ccc2c(c1)/C(=C1/Nc3ccccc3C1=O)C(=O)N2
- IC50 [3]: 0.04 µM
- IC50 (MCF7 [4]): > 10 µM
- solubility kinetic [5]: < 1 µg/mL

Compound: O=C1Nc2ccccc2/C1=C1/Nc2ncccc2C1=O
- IC50 (CDK2/Cyclin A2): 8.8 µM

Compound: CN(C)CCN1C(=O)/C(=C2\Nc3ccccc3C2=O)c2ccccc21
- IC50 (HL-60 [6]): 4.45 µM

Compound: O=C1Nc2ccc([N+](=O)[O-])cc2/C1=C1/Nc2ccccc2/C1=N\O
- IC50 at 24 h [2]: 1 µM

Compound: C[C@@H]1O[C@H](N2C(=O)/C(=C3\Nc4ccc(Cl)cc4C3=O)c3ccccc32)[C@H](O)[C@H](O)[C@H]1O
- IC50 (MCF7 [7]): 6.96 µM

Compound: C[C@@H]1O[C@H](N2C(=O)/C(=C3\Nc4ccccc4C3=O)c3ccccc32)[C@H](O)[C@H](O)[C@H]1O
- IC50 (MCF7 [7]): 0.67 µM
- IC50 (SK-MEL19): 65.4 µM
- IC50 [8]: 86.6 µM
- IC50 (SK-MEL-103): 383 µM

Compound: CC(C)(C)C(=O)Nc1ccc2c(c1)/C(=C1/Nc3ccccc3/C1=N\O)C(=O)N2
- IC50 (A549 [1]): 6.4 µM
- IC50 (SNU-638): 6.5 µM
- IC50 (HT-1080): 4.2 µM
- IC50 at 24 h [2]: 6.4 µM

Compound: C[C@@H]1O[C@H](N2C(=O)/C(=C3\[Se]c4ccccc4C3=O)c3ccccc32)[C@H](O)[C@H](O)[C@H]1O
- Activity (NCI-H157): 16.7%

Compound: CN1C(=O)/C(=C2\Nc3ccc(Cl)cc3\C2=N/O)c2cccnc21
- IC50 (DU-145): 1.8 µM

Compound: NCCO/N=C1/C(=C2/C(=O)Nc3ccccc32)Nc2ccc(O)cc21
- IC50 (A549 [9]): 13 µM
- IC50 (CH1): 1.3 µM
- IC50 (SW480 [10]): 2.5 µM

Compound: Cc1cccc(Nc2nnc(SCC(O)CO/N=C3/C(=C4/C(=O)Nc5ccccc54)Nc4ccccc43)s2)c1C (centres undefined)
- IC50 (SW480 [11]): 16 µM
- IC50 [12]: 19.1 µM
- IC50 (HepG2 [13]): 15.3 µM
- IC50 (HL-60 [14]): 12 µM

Compound: CN(C)CCN(C)S(=O)(=O)c1ccc2c(c1)/C(=C1/Nc3ccccc3/C1=N\O)C(=O)N2
- IC50 [3]: 0.04 µM
- IC50 (MCF7 [4]): < 0.1 µM
- solubility kinetic [5]: 18 µg/mL (≈ 40.8 µM)

Compound: O=C1/C(=C2/C(=O)N(CC(O)CSc3nnc(Nc4ccccc4)s3)c3ccccc32)Nc2ccccc21 (centres undefined)
- IC50 (SW480 [11]): 1.65 µM
- IC50 [12]: 2.21 µM
- IC50 (HepG2 [13]): 1.9 µM
- IC50 (HL-60 [14]): 1.35 µM

Compound: CCCOc1cccc(/C=C/C(=O)c2ccc(OCCn3cc(CN4C(=O)/C(=C5\Nc6ccccc6\C5=N/O)c5ccccc54)nn3)cc2O)c1
- IC50 (HepG2 [15]): 2.95 µM
- IC50 [16]: 2.5 µM
- IC50 (SW480 [17]): 2.91 µM
- IC50 (HL-60 [18]): 1.29 µM

Compound: CN(C)S(=O)(=O)c1ccc2c(c1)/C(=C1/Nc3ccccc3/C1=N\O)C(=O)N2
- IC50 [3]: 0.04 µM
- IC50 (MCF7 [4]): 0.4 µM
- solubility kinetic [5]: < 1 µg/mL

Compound: CCCN1C(=O)/C(=C2\Nc3ccccc3\C2=N/O)c2ccccc21
- IC50 (MCF7 [19]): 87.6 µM
- IC50 (LoVo): 67.5 µM
- IC50 (LNCaP): 77.1 µM

Compound: CN(C)CCN(C)S(=O)(=O)c1ccc2c(c1)/C(=C1/Nc3ccccc3C1=O)C(=O)N2
- IC50 [3]: 0.01 µM
- IC50 (MCF7 [4]): < 0.1 µM
- solubility kinetic [5]: 12 µg/mL (≈ 28.1 µM)

Compound: O=C1Nc2ccccc2/C1=C1/Nc2ccccc2/C1=N\OCC(O)CSc1nnc(Nc2ccccc2)s1 (centres undefined)
- IC50 (SW480 [11]): 16.4 µM
- IC50 [12]: 16.9 µM
- IC50 (HepG2 [13]): 17.7 µM
- IC50 (HL-60 [14]): 9.52 µM

Compound: CN1C(=O)/C(=C2\Nc3ccc(Cl)cc3C2=O)c2cccnc21
- IC50 (DU-145): 8 µM

Compound: NCCO/N=C1/C(=C2/C(=O)Nc3ccc(Br)cc32)Nc2ccc(O)cc21
- IC50 (A549 [9]): 1 µM
- IC50 (CH1): 0.28 µM
- IC50 (SW480 [10]): 0.52 µM

Compound: CN(C)CCN(C)S(=O)(=O)c1ccc2c(c1)/C(=C1/Nc3ccccc3C1(C)O)C(=O)N2 (centres undefined)
- IC50 [3]: 0.07 µM
- IC50 (MCF7 [4]): < 0.1 µM
- solubility kinetic [5]: > 40 µg/mL

Compound: CN(C)S(=O)(=O)c1ccc2c(c1)/C(=C1/Nc3ccccc3C1(C)O)C(=O)N2 (centres undefined)
- IC50 [3]: 0.07 µM
- IC50 (MCF7 [4]): 0.7 µM
- solubility kinetic [5]: > 40 µg/mL

Compound: CC(C)N1C(=O)/C(=C2\Nc3ccccc3C2=O)c2cccnc21
- IC50 (CDK2/Cyclin A2): 9.5 µM

Compound: CCOc1ccccc1/C=C/C(=O)c1ccc(OCCn2cc(CN3C(=O)/C(=C4\Nc5ccccc5\C4=N/O)c4ccccc43)nn2)cc1O
- IC50 (HepG2 [15]): 2.01 µM
- IC50 [16]: 1.3 µM
- IC50 (SW480 [17]): 2.54 µM
- IC50 (HL-60 [18]): 0.98 µM

Compound: CC(=O)O[C@H](CN)CC(=O)O/N=C1/C(=C2/C(=O)Nc3ccccc32)Nc2ccc(O)cc21
- IC50 (A549 [9]): 7.6 µM
- IC50 (CH1): 1.8 µM
- IC50 (SW480 [10]): 5.6 µM

Compound: Cc1ccc(Nc2nnc(SCC(O)CN3C(=O)/C(=C4\Nc5ccccc5C4=O)c4ccccc43)s2)c(C)c1 (centres undefined)
- IC50 (SW480 [11]): 4.19 µM
- IC50 [12]: 4.53 µM
- IC50 (HepG2 [13]): 4.47 µM
- IC50 (HL-60 [14]): 4.28 µM

Compound: CCN1C(=O)/C(=C2\Nc3ccccc3C2=O)c2cccnc21
- IC50 (CDK2/Cyclin A2): 1.2 µM
- IC50 (DU-145): 40 µM

Compound: CCCOc1ccccc1/C=C/C(=O)c1ccc(OCCn2cc(CN3C(=O)/C(=C4\Nc5ccccc5\C4=N/O)c4ccccc43)nn2)cc1O
- IC50 (HepG2 [15]): 2.28 µM
- IC50 [16]: 2.07 µM
- IC50 (SW480 [17]): 3.43 µM
- IC50 (HL-60 [18]): 1.28 µM

Compound: O=C1Nc2ccc(OC(F)(F)F)cc2/C1=C1/[Se]c2ccccc2C1=O
- Activity (NCI-H157): 17.4%

Compound: C=CCC1(O)/C(=C2/C(=O)Nc3ccc(S(=O)(=O)N(C)C)cc32)Nc2ccccc21 (centres undefined)
- IC50 [3]: 0.09 µM
- IC50 (MCF7 [4]): 0.2 µM
- solubility kinetic [5]: 31 µg/mL (≈ 75.3 µM)

Compound: CCN1C(=O)/C(=C2\Nc3ccccc3\C2=N/O)c2cccnc21
- IC50 (DU-145): 8 µM

Compound: C[C@@H]1O[C@H](N2C(=O)/C(=C3\Sc4ccccc4C3=O)c3ccccc32)[C@H](O)[C@H](O)[C@H]1O
- IC50 (SK-MEL19): 12 µM
- IC50 [8]: 6.29 µM
- IC50 (SK-MEL-103): 10.4 µM
- IC50 (SK-MEL-147): 7.52 µM

Compound: O=C1/C(=C2/C(=O)N([C@H]3O[C@H](CO)[C@@H](O)[C@H](O)[C@@H]3O)c3ccccc32)Sc2ccccc21
- IC50 (SK-MEL19): 5.81 µM
- IC50 [8]: 3.96 µM
- IC50 (SK-MEL-103): 6.69 µM
- IC50 (SK-MEL-147): 4.28 µM

Compound: O=C1/C(=C2/C(=O)N(CCN3CCCC3)c3ccccc32)Nc2ccccc21
- IC50 (HL-60 [6]): 3.56 µM

Compound: O=C1/C(=C2/C(=O)N([C@H]3O[C@H](CO)[C@@H](O)[C@H](O)[C@@H]3O)c3ccccc32)[Se]c2ccccc21
- Activity (NCI-H157): 21.5%

Compound: C=CCC1(O)/C(=C2/C(=O)Nc3ccc(S(=O)(=O)N(C)CCN(C)C)cc32)Nc2ccccc21 (centres undefined)
- IC50 [3]: 0.04 µM
- IC50 (MCF7 [4]): < 0.1 µM
- solubility kinetic [5]: > 40 µg/mL

Compound: C[C@@H]1O[C@@H](N2C(=O)/C(=C3\Nc4ccccc4C3=O)c3ccccc32)[C@H](O)[C@H](O)[C@H]1O
- IC50 (MCF7 [7]): 0.76 µM
